# Experimental data from PubChem BioAssay (NCI).
#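 Results reflect a 48-hour exposure of cells in 96-well plates to compound at five concentrations. At the TGI there is no net growth.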
# Assays:
# Test in all cases: inhibition of tumour cell growth, NCI panel, 48 h
# SK-MEL-2 melanoma = test system: SK-MEL-2 melanoma
# HOP-92 NSCLC = test system: HOP-92 NSCLC
# NCI-H23 lung = test system: NCI-H23 lung
# HCC-2998 colon = test system: HCC-2998 colon
# ACHN renal = test system: ACHN renal
# K-562 leukemia = test system: K-562 leukemia
# OVCAR-3 ovarian = test system: OVCAR-3 ovarian
# HCT-15 colon = test system: HCT-15 colon
# MOLT-4 leukemia = test system: MOLT-4 leukemia
# OVCAR-4 ovarian = test system: OVCAR-4 ovarian
# NCI-H522 lung = test system: NCI-H522 lung
# OVCAR-5 ovarian = test system: OVCAR-5 ovarian
# A549 NSCLC = test system: A549 NSCLC
# UO-31 renal = test system: UO-31 renal
# MCF7 breast = test system: MCF7 breast
# HCT-116 colon = test system: HCT-116 colon
# MDA-N = test system: MDA-N
# KM12 colon = test system: KM12 colon
# DU-145 prostate = test system: DU-145 prostate
# HOP-62 NSCLC = test system: HOP-62 NSCLC
# SR leukemia = test system: SR leukemia
# LOX IMVI melanoma = test system: LOX IMVI melanoma
# EKVX NSCLC = test system: EKVX NSCLC
# BT-549 breast = test system: BT-549 breast
# OVCAR-8 ovarian = test system: OVCAR-8 ovarian
# COLO 205 colon = test system: COLO 205 colon
# UACC-62 melanoma = test system: UACC-62 melanoma
# 786-0 renal = test system: 786-0 renal
# M14 melanoma = test system: M14 melanoma
# T-47D breast = test system: T-47D breast
# MALME-3M melanoma = test system: MALME-3M melanoma
# NCI-H460 lung = test system: NCI-H460 lung
# UACC-257 melanoma = test system: UACC-257 melanoma
# HS 578T breast = test system: HS 578T breast
# HT29 colon = test system: HT29 colon
# SK-MEL-5 melanoma = test system: SK-MEL-5 melanoma
# IGROV1 ovarian = test system: IGROV1 ovarian
# PC-3 prostate = test system: PC-3 prostate
# SW-620 colon = test system: SW-620 colon
# SF-268 CNS = test system: SF-268 CNS
# MDA-MB-435 = test system: MDA-MB-435
# SK-MEL-28 melanoma = test system: SK-MEL-28 melanoma
# U251 CNS = test system: U251 CNS
# SNB-75 CNS = test system: SNB-75 CNS
# TK-10 renal = test system: TK-10 renal
# SF-295 CNS = test system: SF-295 CNS
# CAKI-1 renal = test system: CAKI-1 renal
# SNB-19 CNS = test system: SNB-19 CNS
# CCRF-CEM leukemia = test system: CCRF-CEM leukemia
# SF-539 CNS = test system: SF-539 CNS
# SN12C renal = test system: SN12C renal
# NCI/ADR-RES ovarian = test system: NCI/ADR-RES ovarian
# SK-OV-3 ovarian = test system: SK-OV-3 ovarian
# MDA-MB-231 breast = test system: MDA-MB-231 breast
# HL-60(TB) leukemia = test system: HL-60(TB) leukemia
# A498 renal = test system: A498 renal
# RXF 393 renal = test system: RXF 393 renal
# RPMI-8226 leukemia = test system: RPMI-8226 leukemia
smiles,measurement,setting,value
COC1=N[C@H](C(C)C)C(OC)=N[C@H]1Cc1ccc(C[C@@H]2N=C(OC)[C@@H](C(C)C)N=C2OC)s1,TGI,SK-MEL-2 melanoma,49.3 µM
same,TGI,HOP-92 NSCLC,> 100 µM
same,TGI,NCI-H23 lung,72.9 µM
same,TGI,HCC-2998 colon,> 100 µM
same,TGI,ACHN renal,> 100 µM
same,TGI,K-562 leukemia,> 100 µM
same,TGI,OVCAR-3 ovarian,> 100 µM
same,TGI,HCT-15 colon,> 100 µM
same,TGI,MOLT-4 leukemia,41 µM
same,TGI,OVCAR-4 ovarian,> 100 µM
same,TGI,NCI-H522 lung,63.2 µM
same,TGI,OVCAR-5 ovarian,77.9 µM
same,TGI,A549 NSCLC,> 100 µM
same,TGI,UO-31 renal,> 100 µM
same,TGI,MCF7 breast,59.4 µM
same,TGI,HCT-116 colon,> 100 µM
same,TGI,MDA-N,> 100 µM
same,TGI,KM12 colon,> 100 µM
same,TGI,DU-145 prostate,> 100 µM
same,TGI,HOP-62 NSCLC,> 100 µM
same,TGI,SR leukemia,51 µM
same,TGI,LOX IMVI melanoma,> 100 µM
same,TGI,EKVX NSCLC,> 100 µM
same,TGI,BT-549 breast,> 100 µM
same,TGI,OVCAR-8 ovarian,> 100 µM
same,TGI,COLO 205 colon,> 100 µM
same,TGI,UACC-62 melanoma,> 100 µM
same,TGI,786-0 renal,> 100 µM
same,TGI,M14 melanoma,> 100 µM
same,TGI,T-47D breast,38.9 µM
same,TGI,MALME-3M melanoma,> 100 µM
same,TGI,NCI-H460 lung,> 100 µM
same,TGI,UACC-257 melanoma,97.1 µM
same,TGI,HS 578T breast,> 100 µM
same,TGI,HT29 colon,96.3 µM
same,TGI,SK-MEL-5 melanoma,47.8 µM
same,TGI,IGROV1 ovarian,> 100 µM
same,TGI,PC-3 prostate,69.2 µM
same,TGI,SW-620 colon,> 100 µM
same,TGI,SF-268 CNS,> 100 µM
same,TGI,MDA-MB-435,> 100 µM
same,TGI,SK-MEL-28 melanoma,> 100 µM
same,TGI,U251 CNS,70.5 µM
same,TGI,SNB-75 CNS,> 100 µM
same,TGI,TK-10 renal,> 100 µM
same,TGI,SF-295 CNS,> 100 µM
same,TGI,CAKI-1 renal,> 100 µM
same,TGI,SNB-19 CNS,> 100 µM
same,TGI,CCRF-CEM leukemia,50.3 µM
same,TGI,SF-539 CNS,> 100 µM
same,TGI,SN12C renal,> 100 µM
same,TGI,NCI/ADR-RES ovarian,> 100 µM
same,TGI,SK-OV-3 ovarian,> 100 µM
same,TGI,MDA-MB-231 breast,> 100 µM
OB(O)c1ccccc1C#Cc1ccccc1B(O)O,TGI,SK-MEL-2 melanoma,34.7 µM
same,TGI,HOP-92 NSCLC,> 100 µM
same,TGI,NCI-H23 lung,90.9 µM
same,TGI,HCC-2998 colon,40.9 µM
same,TGI,ACHN renal,> 100 µM
same,TGI,K-562 leukemia,> 100 µM
same,TGI,OVCAR-3 ovarian,68.6 µM
same,TGI,HCT-15 colon,> 100 µM
same,TGI,MOLT-4 leukemia,> 100 µM
same,TGI,NCI-H522 lung,41.7 µM
same,TGI,OVCAR-5 ovarian,81.4 µM
same,TGI,A549 NSCLC,96.1 µM
same,TGI,UO-31 renal,60.5 µM
same,TGI,MCF7 breast,31.3 µM
same,TGI,HCT-116 colon,58.4 µM
same,TGI,MDA-N,58.4 µM
same,TGI,KM12 colon,49 µM
same,TGI,DU-145 prostate,82.4 µM
same,TGI,HL-60(TB) leukemia,> 100 µM
same,TGI,HOP-62 NSCLC,83.9 µM
same,TGI,SR leukemia,> 100 µM
same,TGI,LOX IMVI melanoma,51.1 µM
same,TGI,EKVX NSCLC,54.2 µM
same,TGI,BT-549 breast,47.8 µM
same,TGI,A498 renal,15.6 µM
same,TGI,OVCAR-8 ovarian,> 100 µM
same,TGI,COLO 205 colon,35.1 µM
same,TGI,UACC-62 melanoma,30.8 µM
same,TGI,RXF 393 renal,36.9 µM
same,TGI,786-0 renal,> 100 µM
same,TGI,M14 melanoma,57.6 µM
same,TGI,T-47D breast,83.6 µM
same,TGI,MALME-3M melanoma,44.2 µM
same,TGI,NCI-H460 lung,48.2 µM
same,TGI,UACC-257 melanoma,17.3 µM
same,TGI,HS 578T breast,51 µM
same,TGI,HT29 colon,> 100 µM
same,TGI,SK-MEL-5 melanoma,31.9 µM
same,TGI,IGROV1 ovarian,13.9 µM
same,TGI,PC-3 prostate,> 100 µM
same,TGI,SW-620 colon,> 100 µM
same,TGI,SF-268 CNS,46.9 µM
same,TGI,MDA-MB-435,49 µM
same,TGI,SK-MEL-28 melanoma,99.3 µM
same,TGI,U251 CNS,78.3 µM
same,TGI,SNB-75 CNS,> 100 µM
same,TGI,TK-10 renal,53.2 µM
same,TGI,SF-295 CNS,75.9 µM
same,TGI,CAKI-1 renal,22.1 µM
same,TGI,RPMI-8226 leukemia,68.8 µM
same,TGI,SNB-19 CNS,67.9 µM
same,TGI,CCRF-CEM leukemia,> 100 µM
same,TGI,SF-539 CNS,44.9 µM
same,TGI,SN12C renal,68 µM
same,TGI,NCI/ADR-RES ovarian,> 100 µM
same,TGI,SK-OV-3 ovarian,> 100 µM
same,TGI,MDA-MB-231 breast,66.3 µM
